{"source": "paper PMC9563204", "about": "“Mass Spectrometry and Machine Learning Reveal Determinants of Client Recognition by Antiamyloid Chaperones” (Molecular & Cellular Proteomics : MCP, 2022)", "target": "TTR (transthyretin) (Homo sapiens, UniProt P02766)", "experiment": "native MS of Aβ([…]) binding to TTR with and without tafamidis", "details": "TTR tetramer coincubated with Aβ(12–28) and tafamidis, overnight, room temperature; indirect read-out (tetramer stabilization)"}
{"compound": "O=C(O)c1ccc2nc(-c3cc(Cl)cc(Cl)c3)oc2c1", "note": "[tafamidis]", "values": [{"measurement": "native MS of Aβ(12-28) binding to TTR with and without tafamidis", "result": "In the presence of tafamidis, we observed a clear decrease in Aβ binding to TTR"}]}
